Measurements from article PMC6271338, “Synthesis and Cytotoxic Evaluation of Alkoxylated Chalcones” (Molecules, 2014).

Columns and labels:
[1] = Cytotoxicity (SRB) against non-tumoral HMLE cells; type: cell-based, human; conditions: human, HMLE cells (non-tumoral human mammary epithelial cells); increasing concentrations up to 100 μM; mean ± SD of at least three independent experiments; read-out: Normal Human Cell Lines, CC50, HMLE
Procedure: (§1) All compounds were also evaluated for their cytotoxic activity against two non-tumoral human cell lines named human mammary epithelial cell (HMLE) and L02 (a human liver cell line) in Table 2 and SI values between the CC50 in non-tumoral cell lines and IC50 in tumoral cells calculated.
(§2) HepG2 and MCF7 cells were grown in the Eagle’s minimum essential medium with Earle’s balanced salts (MEM-EBSS) medium, HeLa, A549 and L02 cells were grown in Dulbecco’s Modified Eagle Media (DMEM), SW1990 cells were grown in RPMI-1640 medium, and HMLE cell were grown in DMEM/F-12 medium. […]
(§3) Cells were seeded into 96-well plates (4000 cells/well) and incubated at 37 °C in a humidified 5% CO2 atmosphere. After 24 h, the cells were treated with different concentrations of the compounds for 48 h in triplicate to generate dose-response curves. Cell viability was evaluated using the sulforhodamine B (SRB) assay as previous described. […] Etoposide was used as the positive control.

MCF-7 cells = assay: In vitro anti-proliferative SRB assay, MCF-7; type: cell-based, human; conditions: Homo sapiens, MCF7; increasing concentrations up to 30 μM; mean ± SD of at least three independent experiments
Procedure: as §2
(§4) Cells were seeded into 96-well plates (4000 cells/well) and incubated at 37 °C in a humidified 5% CO2 atmosphere. After 24 h, the cells were treated with different concentrations of the compounds for 48 h in triplicate to generate dose-response curves. Cell viability was evaluated using the sulforhodamine B (SRB) assay as previous described.

HeLa cells = assay: In vitro anti-proliferative SRB assay, HeLa; type: cell-based, human; conditions: Homo sapiens, HeLa; increasing concentrations up to 30 μM; mean ± SD of at least three independent experiments
Procedure: as §2, §4

HepG2 cells = assay: In vitro anti-proliferative SRB assay, HepG2; type: cell-based, human; conditions: Homo sapiens; for inhibition at 10 µM: HepG2 cells, SRB assay, mean ± SD of three independent experiments
Procedure: as §2, §4

[2] = Cytotoxicity (SRB) against non-tumoral L02 cells; type: cell-based, human; conditions: human, L02 cells (non-tumoral human liver cell line); increasing concentrations up to 100 μM; mean ± SD of at least three independent experiments; read-out: Normal Human Cell Lines, CC50, L02
Procedure: as §1, §2, §3

A549 cells = assay: In vitro anti-proliferative SRB assay, A549; type: cell-based, human; conditions: Homo sapiens, A549; increasing concentrations up to 30 μM; mean ± SD of at least three independent experiments
Procedure: as §2, §4

SW1990 cells = assay: In vitro anti-proliferative SRB assay, SW1990; type: cell-based, human; conditions: Homo sapiens, SW1990; increasing concentrations up to 30 μM; mean ± SD of at least three independent experiments
Procedure: as §2, §4

Row | Structure (SMILES) | melting point | inhibition at 10 µM (HepG2 cells) | also measured
1 | COc1cc([C@@H]2c3cc4c(cc3[C@@H](O[C@@H]3O[C@@H]5CO[C@@H](C)O[C@H]5[C@H](O)[C@H]3O)[C@H]3COC(=O)[C@H]23)OCO4)cc(OC)c1O [Etoposide, reference compound] |  | 63.9 ± 0.1% | CC50 at 48 h [1]: 6.42 ± 0.39 µM; IC50 (MCF-7 cells): 20.6 ± 0.34 µM; IC50 (HeLa cells): 3.96 ± 0.17 µM; IC50 (HepG2 cells; HepG2, increasing concentrations up to 30 μM, mean ± SD of at least three independent experiments): 5.11 ± 0.45 µM; CC50 at 48 h [2]: > 100 µM; IC50 (A549 cells): 3.23 ± 0.28 µM; IC50 (SW1990 cells): 29.3 ± 1.73 µM
2 | COc1ccc(C(=O)/C=C/c2ccccc2)cc1 [a1, (E)-1-(4-Methoxyphenyl)-3-phenylprop-2-en-1-one] |  | 42.4 ± 2% | 
3 | COc1ccc(C(=O)/C=C/c2ccc(Br)cc2)cc1 [a2, (E)-1-(4-Methoxyphenyl)-3-(4-bromophenyl)prop-2-en-1-one] | 153.7 to 155.1 °C | 37.6 ± 4.4% | 
4 | COc1ccc(C(=O)/C=C/c2ccc(Br)cc2F)cc1 [a3, (E)-1-(4-Methoxyphenyl)-3-(4-bromo-2-fluorophenyl)prop-2-en-1-one] | 122.2 to 123.6 °C | 41.8 ± 5.9% | 
5 | COc1ccc(C(=O)/C=C/c2ccc(F)cc2Br)cc1 [a4, (E)-1-(4-Methoxyphenyl)-3-(2-bromo-4-fluorophenyl)prop-2-en-1-one] | 98.7 to 101 °C | 41.2 ± 4.6% | 
6 | COc1ccc(C(=O)/C=C/c2ccc([N+](=O)[O-])cc2)cc1 [a6, (E)-1-(4-Methoxyphenyl)-3-(4-nitrophenyl)prop-2-en-1-one] |  | 9.8 ± 5% | 
7 | COc1ccc(/C=C/C(=O)c2ccc(OC)cc2)cc1 [a10, (E)-1,3-bis(4-Methoxyphenyl)prop-2-en-1-one] |  | 27.7 ± 17.7% | 
8 | COc1ccc(C(=O)/C=C/c2cccc(OC)c2OC)cc1 [a12, (E)-1-(4-Methoxyphenyl)-3-(2,3-dimethoxyphenyl)prop-2-en-1-one] |  | 66.3 ± 4.2% | 

Further lines, with some results ahead:

Row | melting point | Structure (SMILES) | inhibition at 10 µM (HepG2 cells) | also measured
9 | 145.3 to 146.4 °C | COc1ccc(C(=O)/C=C/c2ccc(Br)cc2Cl)cc1 [a5, (E)-1-(4-Methoxyphenyl)-3-(4-bromo-2-chlorophenyl)prop-2-en-1-one] | 9 ± 5.6% | 
10 | 43.2 to 45.5 °C | COc1ccc(C(=O)/C=C/c2ccccc2OC)cc1 [a8, (E)-1-(4-Methoxyphenyl)-3-(2-methoxyphenyl)prop-2-en-1-one] | 61.4 ± 3.4% | 
11 | 95.7 to 97 °C | COc1ccc(C(=O)/C=C/c2cccc(OC)c2)cc1 [a9, (E)-1-(4-Methoxyphenyl)-3-(3-methoxyphenyl)prop-2-en-1-one] | 59 ± 2.9% | 
12 | 106.3 to 107.9 °C | CCOc1ccc(/C=C/C(=O)c2ccc(OC)cc2)cc1 [a11, (E)-1-(4-Methoxyphenyl)-3-(4-ethoxyphenyl)prop-2-en-1-one] | 13.1 ± 8.4% | 
